Key:
[1] = Stress study at 40° C./75% RH in closed system (appearance, HPLC)
[2] = Hygroscopicity test at room temperature/95% RH in an open system; assay type: physicochemical

SMILES	water absorbed at the 30th day ([2]; FIG. 42) [%]	hygroscopicity compared with D-cycloserine and the carboxylic acids alone [2]	water absorbed at the 30th day ([2]; FIG. 41) [%]	water absorbed at the 60th day ([2]; FIG. 40) [%]	also measured
O=C(O)[C@@H](O)[C@H](O)C(=O)O [D-tartaric acid]	177.0	–	–	–	stability by HPLC after stress study ([1]; 40/75% RH, 30 days, FIG. 39): stable
N[C@@H]1CONC1=O.O=C(O)/C=C\C(=O)O [D-cycloserine maleate (1:1) salt form, D-cycloserine maleate]	–	much less hygroscopic	1.3	–	–
N[C@@H]1CONC1=O [D-cycloserine from Strides Shasun Ltd., D-cycloserine]	42.7	–	41.9	59.2	–
N[C@@H]1CONC1=O.O=C(O)C(O)C(O)C(=O)O [D-cycloserine L-tartrate]	–	much less hygroscopic	–	18.9	hygroscopicity (in words) ([2]; 30 days, FIG. 41): not hygroscopic; hygroscopicity (in words) ([2]; 60 days, FIG. 40): not hygroscopic
O=C(O)[C@H](O)[C@@H](O)C(=O)O [L-tartaric acid]	–	–	–	244.6	–
N[C@@H]1CONC1=O [D-cycloserine]	43.3	–	41.3	62.5	appearance after one month stress study ([1]; 40° C./75% RH, one month): disintegrated and turned into dark yellow
O=C(O)/C=C\C(=O)O [Maleic acid, maleic acid]	–	–	100.4	–	–
N[C@@H]1CONC1=O.N[C@@H]1CONC1=O.O=C(O)C(O)C(O)C(=O)O [D-cycloserine D-tartrate]	1.3	much less hygroscopic	–	–	hygroscopicity (in words) ([2]; 30 days, FIG. 42): not hygroscopic

— US12178804B2, “Salts of cycloserine compounds and applications thereof” (SyneuRx International (Taiwan) Corp., priority 2018, dated 2024)
